The conditions of experiment [1]: mice; Shea et al, Neuromolecular Medicine 2004; cited from earlier work.
In experiment [2] the target is recombinant expressed human or mouse AHCY enzyme (UniProt P23526). In words: In vitro AHCY activity assay (ThioGlo1 fluorescence, hydrolysis of SAH). Type of experiment: biochemical. The note with it: Example 1 average of n=3, Example 2 n=1.
Method: In vitro AHCY Activity Assay
The AHCY enzyme assay is based on the principle of fluorescence emission following incubation of a reactive dye with the products of an AHCY catalyzed reaction. The reactive dye (Thioglo1) binds homocysteine through its thiol-containing moiety. The products of the AHCY catalyzed reaction, adenosine and homocysteine, are produced from the hydrolysis of SAH (s-adenosylhomocysteine) through AHCY's hydrolase activity.
The reaction is optimized in 96-, 384-, 1536- and 3456-assay plate formats, with recombinant expressed human or mouse AHCY enzyme. When run under initial velocity conditions, the assay is suitable for IC50 and % inhibition calculations.
• 1) ThioGlo1 (catalog 595501, Calbiochem); 100 mM in DMSO • 2) SAH (catalog A-9384, Sigma); 4.69 mM with 0.06 N HCl • 3) Aristeromycin (catalog A-0928, Sigma); 100 mM in DMSO • 4) NAD (catalog 43410, Sigma); 14.5 mM in water • 5) EDTA in 500 mM pH 8 (catalog BP2482-100, Fisher) • 6) DTT stock 200 mM in water • 7) AHCY enzyme (diluted with 100 mM tris pH7.5) Dilutions Immediately Prior to use: • 1. SAH 750 μM (10×) (dilute with 100 mM Tris pH 7.5) • 2. Aristeromycin (10×) (dilute to 1 mM with 100 mM Tris pH7.5) • 3. ThioGlo1 (10×) (dilute to 100 μM in Tris pH7.5) • 4. AHCY assay buffer (3.3×): 3 μM DTT, 150 μM NAD, 3 mM EDTA Protocol: As per 96-Assay Plate Well • 1. […] Read plate (Ex 380 Em 510)
For the next experiment, the target named is T1, AHCY (Homo sapiens, UniProt P23526).
T1 construct: endogenous in cells; host or cells: HEK293 and/or SH-SY5Y
T1 sequence (P23526 2-432 limits assumed): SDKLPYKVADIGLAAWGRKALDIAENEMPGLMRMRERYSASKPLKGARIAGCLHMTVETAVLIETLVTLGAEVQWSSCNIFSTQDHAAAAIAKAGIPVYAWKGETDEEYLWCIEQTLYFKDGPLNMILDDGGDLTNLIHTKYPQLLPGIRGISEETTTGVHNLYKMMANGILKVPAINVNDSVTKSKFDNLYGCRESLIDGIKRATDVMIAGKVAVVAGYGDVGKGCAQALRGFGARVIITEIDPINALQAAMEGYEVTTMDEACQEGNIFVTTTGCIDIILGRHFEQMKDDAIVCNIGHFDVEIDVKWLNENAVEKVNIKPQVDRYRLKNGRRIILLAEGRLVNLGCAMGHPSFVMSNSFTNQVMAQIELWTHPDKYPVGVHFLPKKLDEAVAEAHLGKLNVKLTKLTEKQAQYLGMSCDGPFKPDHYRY
In words: Cell-based assay of AHCY inhibition (secreted homocysteine). The note with it: secreted homocysteine from HEK293 and/or SH-SY5Y cells, 72 hrs; Example 1 average of n=4, Example 2 n=1.

One may read the IC50 as the midpoint of a concentration-inhibition curve.

`Nc1nccc2c1ncn2[C@@H]1O[C@H](CO)[C@@H](O)[C@H]1O` [3-deaza-adenosine]: in experiment [1], the “oxidative damage and cognitive impairment” value was “prevent oxidative damage and cognitive impairment”.

For `Nc1ncc(F)c2c1ncn2[C@@H]1CC[C@@H](O)[C@H]1O` [Example 1, (1R,2S,3R)-3-(4-amino-7-fluoro-1H-imidazo[4,5-c]pyridin-1-yl)cyclopentane-1,2-diol], the figures for the IC50 (in experiment [2]; against AHCY) were 42 nM and 1.5 nM, respectively.

As for `Nc1ncc(F)c2c1ncn2[C@@H]1C=C[C@@H](O)[C@H]1O` [Example 2, (1S, 2R, 5R)-5-(4-amino-7-fluoro-1H-imidazo[4,5-c]pyridin-1-yl)cyclopent-3-ene-1,2-diol], the values for the IC50 (in experiment [2]; against AHCY) were 17900 nM and 28.2 nM, respectively.

The values are drawn from US8629275B2, “AHCY hydrolase inhibitors for treatment of hyper homocysteinemia” (Merck Sharp & Dohme Corp., priority 2008, dated 2014).
